# According to patent US20260116847A1 (priority 2023, published 2026):
# Legend:
# [1] = Thermogravimetric analysis (TGA); assay type: physicochemical; settings: 10° C./min; for weight loss (TG): 25° C.-195° C.; for degradation temperature (TG): range 25° C.-320° C.
# Protocol: Thermogravimetric analysis for the crystalline polymorphic form I, II and III was performed using a Mettler Toledo TGA/DSC1 apparatus. The sample was weighed in an aluminum pan closed with an aluminum cover with holes.
# […] […] The degradation occurred above 200° C. The TG analysis proves that the crystalline polymorphic form I of marimastat exists in the anhydrous form.
# […] […] The degradation occurred above 200° C. The TG analysis proves that the crystalline polymorphic form II of marimastat exists in the anhydrous form.
# This sample was analyzed by TGA-EGA. The analysis was performed at a temperature of 25° C.-320° C. at a rate of 10° C./min. […] The degradation occurred above 200° C. The TG analysis proves that the crystalline polymorphic form III of marimastat exists in the anhydrous form.
# [2] = Solubility tests in water; assay type: physicochemical; settings: comparison of forms I, II and III
# Protocol: Solubility tests were performed by dissolving samples of pure forms of marimastat in water.
# [3] = Stability studies of solid forms under storage conditions, XRPD; assay type: physicochemical; settings: 25° C./100% RH and 40° C./75% RH 7 days; 30°/100 mbar 1 hour; room temperature 1 year; above 150° C.
# Protocol: Stability studies of the amorphous form, pure crystalline polymorphic forms I, II and III and the mixture of the crystalline polymorphic forms I and III were carried out under the following conditions: 25° C./100% RH (relative humidity) and 40° C./75% RH (relative humidity) for 7 days, at 30°/100 mbar for 1 hour, at room temperature for 1 year, and also at elevated temperature (above 150° C.).
# [4] = Stability of the forms I, II and III stirred together in various solvents, XRPD; assay type: physicochemical; settings: for thermodynamic stability of the form: maceration of the mixture of all three forms in different solvents, room temperature, 4 days; for XRPD form after stirring: 25 °C, 4 d
# Text: The remaining 7 solvents gave the initial mixture of three polymorphic forms. Thus, when using the mixture of all three forms for maceration in different solvents, complete disappearance of the form II and the form III, complete disappearance of the form II, or all three forms remaining in the mixture were observed. The complete disappearance of the form I was not observed in any of the experiments.
# [5] = Microscopic examinations / bulk density; assay type: physicochemical; settings: comparison of the forms
# Protocol: Microscopic examinations were performed using an optical microscope or electron microscope.
# [6] = Stability of the form II in various solvents at room temperature, XRPD; assay type: physicochemical; settings: for XRPD form after stirring: 25 °C, 4 d
# Protocol: The stability of the form II in various solvents at room temperature was tested. Experiments were performed by suspending the form II in 1 ml of solvent and the formed suspension was stirred at room temperature at 25° C. for 4 days. Then, the precipitate was filtered off and the samples were dried at a temperature of 30° C./100 mbar for one hour, followed by XRPD analysis.
# [7] = tested on: tumor-specific antigens (CEA, CA 19/9, CA 125, prostate-specific antigen); settings: meta-analysis of phase I/II trials, over 400 patients, solid tumors; cited from earlier work
# [8] = tested on: kainic acid-induced status epilepticus model; settings: mouse study; cited from earlier work
smiles,measurement,setting,value
CNC(=O)[C@@H](NC(=O)[C@H](CC(C)C)[C@H](O)C(=O)NO)C(C)(C)C [form I],weight loss (TG),[1],0.3%
same,degradation temperature (TG),[1],above 200 °C
same,rate of dissolution in water,[2],dissolves the slowest
same,stability by XRPD (changes in diffraction lines),[3],stable
same,thermodynamic stability of the form,[4],most thermodynamically stable
same,bulk density,[5],highest and comparable bulk density
same,thermodynamic stability of the form,"[6]; form II stirred in solvents, 25° C., 4 days",greatest thermodynamic stability
CNC(=O)[C@@H](NC(=O)[C@H](CC(C)C)[C@H](O)C(=O)NO)C(C)(C)C [form II],weight loss (TG),[1],0.2%
same,degradation temperature (TG),[1],above 200 °C
same,stability by XRPD (changes in diffraction lines),[3],stable
same,thermodynamic stability of the form,[4],kinetic forms
same,bulk density,[5],highest and comparable bulk density
same,XRPD form after stirring,"[6]; 2-propanol, 30 mg/mL",Form II
same,XRPD form after stirring,"[6]; acetonitrile, 10 mg/mL",Form I
same,XRPD form after stirring,"[6]; butyl acetate, 10 mg/mL",Form Il
same,XRPD form after stirring,"[6]; ethanol, 10 mg/mL",Form II
same,XRPD form after stirring,"[6]; methanol, 110 mg/mL",Form I
same,XRPD form after stirring,"[6]; methylcyclohexane, 10 mg/mL",Form II
same,XRPD form after stirring,"[6]; methylene chloride, 20 mg/mL",Form II
same,XRPD form after stirring,"[6]; p-xylene, 20 mg/mL",Form II
same,XRPD form after stirring,"[6]; water, 30 mg/mL",Form II
CNC(=O)[C@@H](NC(=O)[C@H](CC(C)C)[C@H](O)C(=O)NO)C(C)(C)C [mixture of three polymorphic forms],XRPD form after stirring,"[4]; 2-propanol, 30 mg/mL",Form I + Form III
same,XRPD form after stirring,"[4]; acetone, 10 mg/mL",Form I
same,XRPD form after stirring,"[4]; acetonitrile, 10 mg/mL",Form I
same,XRPD form after stirring,"[4]; butyl acetate, 10 mg/mL",Form I + Form II + Form III
same,XRPD form after stirring,"[4]; dimethoxyethane, 10 mg/mL",Form I
same,XRPD form after stirring,"[4]; ethanol, 10 mg/mL",Form I
same,XRPD form after stirring,"[4]; heptane, 10 mg/mL",Form I + Form II + Form III
same,XRPD form after stirring,"[4]; methanol, 110 mg/mL",Form I
same,XRPD form after stirring,"[4]; methyl isobutyl ketone, 10 mg/mL",Form I + Form II + Form III
same,XRPD form after stirring,"[4]; methyl tert-butyl ether, 10 mg/mL",Form I + Form III
same,XRPD form after stirring,"[4]; methylcyclohexane, 10 mg/mL",Form I + Form II + Form III
same,XRPD form after stirring,"[4]; methylene chloride, 10 mg/mL",Form I + Form II + Form III
same,XRPD form after stirring,"[4]; p-xylene, 10 mg/mL",Form I + Form II + Form III
same,XRPD form after stirring,"[4]; tetrahydrofuran, 10 mg/mL",Form I
same,XRPD form after stirring,"[4]; toluene, 10 mg/mL",Form I + Form II + Form III
same,XRPD form after stirring,"[4]; water, 30 mg/mL",Form I + Form III
CNC(=O)[C@@H](NC(=O)[C@H](CC(C)C)[C@H](O)C(=O)NO)C(C)(C)C [mixture of the forms I and III],stability by XRPD (changes in diffraction lines),[3],stable
CNC(=O)[C@@H](NC(=O)[C@H](CC(C)C)[C@H](O)C(=O)NO)C(C)(C)C [form III],weight loss (TG),[1],0.4%
same,degradation temperature (TG),[1],above 200 °C
same,rate of dissolution in water,[2],fastest soluble in water
same,stability by XRPD (changes in diffraction lines),[3],stable
same,thermodynamic stability of the form,[4],kinetic forms
"CNC(=O)[C@@H](NC(=O)[C@H](CC(C)C)[C@H](O)C(=O)NO)C(C)(C)C [Marimastat, (2R,3S)—N-1-((S)-3,3-dimethyl-1-methylamino-1-oxobutan-2-yl)-N-4,3-dihydroxy-2-isobutylsuccinamide]",growth indicators of tumor-specific antigens,[7],significantly reduced all four growth indicators of tumor-specific antigens in a dose-dependent manner
same,duration and number of seizures,[8],reduced the duration and number of seizures
